This is an account of results in patent publication US20090239841A1, “Diaryl Ureas as CB1 Antagonists” (priority 2004, published 2009).

Each structure is given as a SMILES string.

The target in one assay is T1, hCB1 (Homo sapiens, UniProt P21554).
T1 construct: made in house; host or cells: Sf9 insect cells (baculovirus), P2 membranes
T1 sequence (P21554 whole entry): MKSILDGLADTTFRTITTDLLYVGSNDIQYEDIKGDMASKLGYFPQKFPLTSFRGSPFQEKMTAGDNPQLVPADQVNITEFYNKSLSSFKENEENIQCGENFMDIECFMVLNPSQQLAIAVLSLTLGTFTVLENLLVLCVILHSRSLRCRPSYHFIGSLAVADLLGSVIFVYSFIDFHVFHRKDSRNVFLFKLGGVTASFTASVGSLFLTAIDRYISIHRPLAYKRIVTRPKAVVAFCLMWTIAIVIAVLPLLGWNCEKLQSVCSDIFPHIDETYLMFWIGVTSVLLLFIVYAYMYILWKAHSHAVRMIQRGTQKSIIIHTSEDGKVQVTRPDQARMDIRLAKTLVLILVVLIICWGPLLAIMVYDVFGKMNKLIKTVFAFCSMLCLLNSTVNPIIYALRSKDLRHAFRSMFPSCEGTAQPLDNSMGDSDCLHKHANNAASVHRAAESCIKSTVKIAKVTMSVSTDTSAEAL
As to the kind of experiment: Agonist-induced GTP binding (GTPγ35S) assay at CB1, Example 8. It counts as biochemical. To be noted: IC50 at CB1, determined as described in Example 8; read-out: IC50. From the text: As noted above, compounds provided herein are CB1 antagonists. Certain such compounds are non-competitive CB1 antagonists. In addition, or alternatively, certain compounds provided herein display CB1 specificity. CB1 antagonist activity may be confirmed using an agonist-induced GTP binding assay, such as the assay described in Example 8. Such assays employ a CB1-containing cell membrane preparation (e.g., a preparation of membranes of insect cells that recombinantly express CB1) to determine the effect of a test compound on CB1 agonist-induced GTP binding to CB1. Briefly, a first cell membrane preparation comprising CB1 is contacted with: (i) labeled GTP; (ii) a CB1 agonist; and (iii) a test compound to yield a test membrane preparation. Simultaneously, or in either order, a second cell membrane preparation comprising CB1 is contacted with: (i) labeled GTP; and (ii) a CB1 agonist to yield a control membrane preparation. The labeled GTP is preferably GTPγ^35S; a representative CB1 agonist is CP55,940. Such contact is performed under conditions that are suitable for GTP binding to CB1, such as the conditions described in Example 8. The concentrations of labeled GTP and CB1 agonist used are generally concentrations that are sufficient to result in a detectable increase in the amount of labeled GTP bound to the membrane preparation in the presence of CB1 agonist. Such concentrations may be determined by routine experimentation; representative suitable concentrations are provided in Example 8. Generally, a range of test compound concentrations is used (e.g., ranging from 10^−10M to 10^−5M).
After sufficient contact (e.g., incubation) to allow GTP binding to the membrane preparations, a signal that corresponds to (represents) the amount of bound, labeled GTP is detected (typically, unbound labeled GTP is first removed via a washing step). In other words, simultaneously or in either order: (i) a test signal that represents an amount of bound, labeled GTP in the test membrane preparation is detected; and (ii) a control signal that represents an amount of bound, labeled GTP in the control membrane preparation is detected. The nature of the signal detected is determined by the type of label used. For example, if the GTP is radioactively labeled, the signal detected is radioactive decay (e.g., via liquid scintillation spectrometry). The CB1 antagonist activity of the test compound is then determined by comparing the test signal with the control signal.
This assay can also be used to detect partial agonism mediated by antagonist compounds. A compound being analyzed in this assay is referred to herein as a “test compound.” Agonist-stimulated GTP binding activity is measured as follows: Four independent baculoviral stocks (one directing the expression of hCB1 and three directing the expression of each of the three subunits of a heterotrimeric G-protein) are used to infect a culture of Sf9 cells as described in Example 5.
Agonist-stimulated GTP binding on purified membranes (as described in Example 6) is initially assessed using the cannabinoid agonist CP55,940 to ascertain that the receptor/G-protein-alpha-beta-gamma combination(s) yield a functional response as measured by GTP binding.
P2 membranes are resuspended by Dounce homogenization (tight pestle) in GTP binding assay buffer (50 mM Tris pH 7.4, 120 mM NaCl, 5 mM MgCl2, 2 mM EGTA, 0.1% BSA, 0.1 mM bacitracin, 10 KIU/mL aprotinin, 5 μM GDP) and added to reaction tubes at a concentration of 10 μg protein/reaction tube. After adding increasing doses of the agonist CP55,940 at concentrations ranging from 10^−12 M to 10^−6 M, reactions are initiated by the addition of […] GTPγ^35S. In competition experiments, non-radiolabeled test compounds are added to separate assays at concentrations ranging from 10^−10 M to 10^−5 M along with 1 nM CP55,940 to yield a final volume of 0.25 mL. […]
`CCc1ccc(NC(=O)Nc2ccc(F)c(F)c2)cc1` [Compound 441, 1-(3,4-difluorophenyl)-3-(4-ethylphenyl)urea]: the concentration for half-maximal inhibition (IC50) (as a rule, the concentration that gives 50% inhibition) is < 2000 nM.
For the compound `CCn1nnnc1-c1ccc(NC(=O)Nc2cccc(OC(F)F)c2)cc1` [Compound 791, N-[3-(difluoromethoxy)phenyl]-N′-[4-(1-ethyl-1H-tetrazol-5-yl)phenyl]urea], the half-inhibitory concentration (IC50) was < 2000 nM.
Turning to `CCOc1ccc(NC(=O)Nc2ccc(C#N)cc2)cc1` [Compound 411, 1-(4-cyanophenyl)-3-(4-ethoxyphenyl)urea], the half-inhibitory concentration (IC50) was < 2000 nM.
Turning to `COC(=O)c1ccc(NC(=O)Nc2ccc(C)cc2)cc1` [Compound 470, methyl 4-({[(4-methylphenyl)amino]carbonyl}amino)benzoate], the IC50 was < 2000 nM.
The same measure, in the same setting: the figure for `CCC(=O)c1ccc(NC(=O)Nc2cccc(OC)c2)cc1` [Compound 591, 1-(3-methoxyphenyl)-3-(4-propionylphenyl)urea] is < 2000 nM.
In the case of `CCc1cccc(NC(=O)Nc2ccc(C(C)=O)cc2)c1` [Compound 341, 1-(4-acetylphenyl)-3-(3-ethylphenyl)urea], the IC50 is < 2000 nM.
With `CC(C)(C)c1ccccc1NC(=O)Nc1ccc(OC(F)F)cc1` [Compound 604, 1-(2-tert-butylphenyl)-3-[4-(difluoromethoxy)phenyl]urea], the half-maximal inhibitory concentration (IC50) is < 2000 nM.
As to `CC(=O)c1ccc(NC(=O)Nc2ccc(C)cc2)cc1` [Compound 338, 1-(4-acetylphenyl)-3-(4-methylphenyl)urea], the half-inhibitory concentration (IC50) is < 2000 nM.
`CCCOc1ccc(NC(=O)Nc2cccc(C)c2)cc1` [Compound 304, 1-(3-methylphenyl)-3-(4-propoxyphenyl)urea]: the IC50 was < 2000 nM.
With `O=C(Nc1ccc(F)cc1)Nc1ccc(OC(F)F)cc1` [Compound 373, 1-[4-(difluoromethoxy)phenyl]-3-(4-fluorophenyl)urea], the IC50 is < 2000 nM.
On to `CC(=O)c1ccc(NC(=O)Nc2ccc(CC#N)cc2)cc1` [Compound 505, 1-(4-acetylphenyl)-3-[4-(cyanomethyl)phenyl]urea], for which the 50% inhibitory concentration (IC50) was < 2000 nM.
For `CC(C)c1ccc(NC(=O)Nc2cccc(OC(F)F)c2)cc1` [Compound 577, 1-[3-(difluoromethoxy)phenyl]-3-(4-isopropylphenyl)urea], the IC50 was < 2000 nM.
The same measure, in the same setting: as for `CCCOc1ccc(NC(=O)Nc2ccc(C(C)C)cc2)cc1` [Compound 573, 1-(4-isopropylphenyl)-3-(4-propoxyphenyl)urea], the figure is < 2000 nM; as for `CC(=O)c1ccc(NC(=O)Nc2ccc(C)c(F)c2)cc1` [Compound 450, 1-(4-acetylphenyl)-3-(3-fluoro-4-methylphenyl)urea], < 2000 nM.
On the same count and under the same terms, as for `COc1cccc(NC(=O)Nc2ccc(CC#N)cc2)c1` [Compound 585, 1-[4-(cyanomethyl)phenyl]-3-(3-methoxyphenyl)urea], the figure is < 2000 nM.
Consider `Cc1ccc(F)c(NC(=O)Nc2cccc(OC(F)F)c2)c1` [Compound 699, 1-[3-(difluoromethoxy)phenyl]-3-(2-fluoro-5-methylphenyl)urea], for which the concentration for half-maximal inhibition (IC50) is < 2000 nM.
Regarding `CC(C)OC(=O)c1ccc(NC(=O)Nc2ccc(OC(F)F)cc2)cc1` [Compound 584, isopropyl 4-[({[4-(difluoromethoxy)phenyl]amino}carbonyl)amino]benzoate], the IC50 was < 2000 nM.
In the case of `CC(C)Oc1ccc(NC(=O)Nc2ccc(C#N)cc2)cc1` [Compound 421, 1-(4-cyanophenyl)-3-(4-isopropoxyphenyl)urea], the IC50 is < 2000 nM.
On the same count and under the same terms, as for `Cc1cccc(NC(=O)Nc2ccc(OCC#N)cc2)c1` [Compound 464, 1-[4-(cyanomethoxy)phenyl]-3-(3-methylphenyl)urea], the figure is < 2000 nM; as for `CCc1cccc(NC(=O)Nc2ccc(C)c(F)c2)c1` [Compound 438, 1-(3-ethylphenyl)-3-(3-fluoro-4-methylphenyl)urea], < 2000 nM; as for `CCOc1cccc(NC(=O)Nc2cccc(C(=O)OC)c2)c1` [Compound 659, methyl 3-({[(3-ethoxyphenyl)amino]carbonyl}amino)benzoate], < 2000 nM.
`CCOc1cccc(NC(=O)Nc2ccc(C)c(C)c2)c1` [Compound 680, 1-(3,4-dimethylphenyl)-3-(3-ethoxyphenyl)urea]: the IC50 was < 2000 nM.
Consider `COc1ccc(NC(=O)Nc2ccc(C)c(F)c2)cc1` [Compound 615, 1-(3-fluoro-4-methylphenyl)-3-(4-methoxyphenyl)urea], for which the IC50 was < 2000 nM.
On to `Cc1ccc(NC(=O)Nc2ccc(OC(F)F)cc2)cc1F` [Compound 606, 1-[4-(difluoromethoxy)phenyl]-3-(3-fluoro-4-methylphenyl)urea], for which the IC50 was < 2000 nM.
Take `Cc1ccc(NC(=O)Nc2ccc(C)c(Cl)c2)cc1F` [Compound 776, 1-(3-chloro-4-methylphenyl)-3-(3-fluoro-4-methylphenyl)urea]: the half-inhibitory concentration (IC50) is < 2000 nM.
Consider `COC(=O)c1ccc(NC(=O)Nc2ccccc2)cc1` [Compound 481, methyl 4-[(anilinocarbonyl)amino] benzoate], for which the IC50 was < 2000 nM.
Still for that read-out and setting: as for `CCOC(=O)c1cccc(NC(=O)Nc2ccc(OCC)cc2)c1` [Compound 664, ethyl 3-({[(4-ethoxyphenyl)amino]carbonyl}amino)benzoate], the figure is < 2000 nM; as for `Cc1ccc(NC(=O)Nc2ccc(F)c(F)c2)cc1Cl` [Compound 777, 1-(3-chloro-4-methylphenyl)-3-(3,4-difluorophenyl)urea], < 2000 nM.

The same assay, now with this note: Table I; IC50 at CB1, GTP binding with 1 nM CP55,940; read-out: IC50.
For the compound `O=C(Nc1ccccc1)Nc1ccc(OC(F)F)cc1` [Compound 48, N-[4-(difluoromethoxy)phenyl]-N′-phenylurea], the IC50 was < 2000 nM.
For the compound `CCc1ccc(NC(=O)Nc2cccc(C)c2)cc1` [Compound 59, N-(4-ethylphenyl)-N′-(3-methylphenyl)urea], the concentration for half-maximal inhibition (IC50) is < 2000 nM.
For the compound `CCc1ccc(NC(=O)Nc2ccc(C#N)cc2)cc1` [Compound 27, N-(4-cyanophenyl)-N′-(4-ethylphenyl)urea], the 50% inhibitory concentration (IC50) is < 2000 nM.

The assay is the same for the next values; noted with them: Table II; IC50 at CB1, GTP binding with 1 nM CP55,940; read-out: IC50.
With `CC(C)c1ccc(NC(=O)Nc2ccc(Cl)cc2)cc1` [Compound 182, N-(4-chlorophenyl)-N′-(4-isopropylphenyl)urea], the IC50 was < 2000 nM.
Same read-out and setting: as for `CCc1cncc(-c2cccc(NC(=O)Nc3ccc(OC(F)F)cc3)c2)n1` [Compound 124, N-[4-(difluoromethoxy)phenyl]-N′-[3-(6-ethylpyrazin-2-yl)phenyl]urea], the figure is < 2000 nM; as for `COCc1ccc(NC(=O)Nc2ccc(C)cc2)cc1` [Compound 207, N-[4-(methoxymethyl)phenyl]-N′-(4-methylphenyl)urea], < 2000 nM.
Same read-out and setting: the figure for `CCc1cccc(NC(=O)Nc2ccc(C(C)=O)cc2)c1` [Compound 190, N-(4-acetylphenyl)-N′-(3-ethylphenyl)urea] is < 2000 nM; for `CCc1ccc(NC(=O)Nc2cccc(OC(F)F)c2)cc1` [Compound 254, N-[3-(difluoromethoxy)phenyl]-N′-(4-ethylphenyl)urea] it is < 2000 nM; for `CCc1ccc(NC(=O)Nc2ccc3ncccc3c2)cc1` [Compound 128, N-(4-ethylphenyl)-N′-quinolin-6-ylurea] it is < 2000 nM.
Take `COc1ccc(C(F)(F)F)c(-c2cccc(NC(=O)Nc3ccc(OC(F)F)cc3)c2)n1` [Compound 121, N-[4-(difluoromethoxy)phenyl]-N′-{3-[6-methoxy-3-(trifluoromethyl)pyridin-2-yl]phenyl}urea]: the IC50 was < 2000 nM.
